Test results as given in patent publication US12543736B2, “Herbicidal compositions comprising mesotrione” (BASF SE, priority 2024, dated 2026).

Key:
Format in all cases: in vivo
Zea mays = assay: Example 4 post-emergence application A-1, B and C-19, ZEAMX; settings: growth stage 12, 21 DAT, g ai/ha: A-1 2, B 50, C-19 30
Method: In the examples below, using the method of S. R. Colby (1967) “Calculating synergistic and antagonistic responses of herbicide combinations”, Weeds 15, p. 22ff., the value E, which is expected if the activity of the individual active compounds is only additive, was calculated:
[formula] • where • X=percent activity using active herbicide A at an application rate a; • Y=percent activity using active herbicide B (e.g. mesotrione) at an application rate b; • E=expected activity (in %) by A+B at application rates a+b.
If the value found experimentally is higher than the value E calculated according to Colby, a synergistic effect is present.
Evaluation was carried out using a scale from 0 to 100. 100 means no emergence of the plants, or complete destruction of at least the above-ground parts, and 0 means no damage or normal course of growth. A good herbicidal activity is given at values of at least 70, and very good herbicidal activity is given at values of at least 85.
Post-Emergence Application of Herbicide A-1 (A-1), Mesotrione (B) and Pyroxasulfone (C-19)
Herbicide A-1 (342 g/l), mesotrione (100 g/l) and pyroxasulfone (500 g/l) were, together with addition of 0.5 v/v % MSO (methylated sed oil) as adjuvant, formulated in water as distribution medium (water volume 200 l/ha) and sprayed with commercial flat fan nozzles.

Panicum dichotomiflorum = assay: Example 1 post-emergence greenhouse trial, PANDI; settings: growth stage 13, 21 DAT, g ai/ha: A-1 4, B 62.5
Method: (§1) In the examples below, using the method of S. R. Colby (1967) “Calculating synergistic and antagonistic responses of herbicide combinations”, Weeds 15, p. 22ff., the value E, which is expected if the activity of the individual active compounds is only additive, was calculated: [formula] • where • X=percent activity using active herbicide A at an application rate a; • Y=percent activity using active herbicide B (e.g. mesotrione) at an application rate b; • E=expected activity (in %) by A+B at application rates a+b. If the value found experimentally is higher than the value E calculated according to Colby, a synergistic effect is present. The culture containers used were plastic pots containing loamy sand with approximately 3.0% of humus as substrate. The seeds of the test plants were sown separately for each species. For the post-emergence treatment, the test plants were grown to a plant height of from 3 to 15 cm, depending on the plant habit, and only then treated with the active compounds which had been suspended or emulsified in water. To this end, the test plants were either sown directly, and grown in the same containers, or they were first grown separately as seedlings and transplanted into the test containers a few days prior to treatment. […] During this time, the plants were tended and their response to the individual treatments was evaluated. […]

Alopercurus myosuroides = assay: Example 1 post-emergence greenhouse trial, ALOMY; settings: growth stage 13, 21 DAT, g ai/ha: A-1 4, B 62.5
Method: as §1

Brachiaria decumbens = assay: Example 1 post-emergence greenhouse trial, BRADC; settings: growth stage 13, 21 DAT, g ai/ha: A-1 4, B 62.5
Method: as §1

SMILES | % herbicidal activity (Zea mays) | % herbicidal activity (Panicum dichotomiflorum) | % herbicidal activity (Alopercurus myosuroides) | % herbicidal activity (Brachiaria decumbens)
CCOC(=O)COc1ccccc1Oc1nc(-n2c(=O)cc(C(F)(F)F)n(C)c2=O)c(F)cc1Cl [A-1, ethyl 2-[2-[[3-chloro-5-fluoro-6-[3-methyl-2,6-dioxo-4-(trifluoromethyl)pyrimidin-1-yl]-2-pyridyl]oxy]phenoxy]acetate] | 40% | 95% | 85% | 98%
CS(=O)(=O)c1ccc(C(=O)C2C(=O)CCCC2=O)c([N+](=O)[O-])c1 [B, mesotrione] | 0% | 0% | 0% | 20%
